Experimental data: ChEMBL document CHEMBL4507265 (2021)

Key:
[1] = target: Ankyrin repeat and protein kinase domain-containing protein 1 (Homo sapiens) (UniProt Q8NFD2); conditions: Compound concentration 1000.0 nM
[2] = target: Protein-tyrosine kinase 6 (Homo sapiens) (UniProt Q13882); conditions: Compound concentration 1000.0 nM
[3] = target: Calcium/calmodulin-dependent protein kinase type II subunit alpha (Homo sapiens) (UniProt Q9UQM7); conditions: Compound concentration 1000.0 nM
[4] = target: Cyclin-dependent kinase 19 (Homo sapiens) (UniProt Q9BWU1); conditions: Compound concentration 1000.0 nM
[5] = target: Cyclin-dependent kinase 2 (Homo sapiens) (UniProt P24941); conditions: Compound concentration 1000.0 nM
[6] = target: Dual specificity protein kinase CLK2 (Homo sapiens) (UniProt P49760); conditions: Compound concentration 1000.0 nM
Sequence of Dual specificity protein kinase CLK2 (Homo sapiens) (P49760 whole entry, looked up): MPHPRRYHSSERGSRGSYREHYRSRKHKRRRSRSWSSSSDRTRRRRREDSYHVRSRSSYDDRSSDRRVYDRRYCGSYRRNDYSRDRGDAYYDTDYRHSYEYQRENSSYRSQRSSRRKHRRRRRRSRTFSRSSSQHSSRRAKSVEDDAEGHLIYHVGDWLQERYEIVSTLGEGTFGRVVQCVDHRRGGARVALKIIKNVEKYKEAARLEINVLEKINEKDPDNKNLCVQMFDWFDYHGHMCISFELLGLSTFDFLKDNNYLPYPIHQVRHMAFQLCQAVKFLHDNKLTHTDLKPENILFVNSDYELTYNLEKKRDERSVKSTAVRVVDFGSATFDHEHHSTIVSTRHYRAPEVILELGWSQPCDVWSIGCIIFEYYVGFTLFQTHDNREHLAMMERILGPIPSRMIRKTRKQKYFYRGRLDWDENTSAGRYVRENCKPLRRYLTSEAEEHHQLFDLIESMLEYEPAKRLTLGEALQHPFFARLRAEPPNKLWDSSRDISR

[7] = target: Macrophage colony-stimulating factor 1 receptor (Homo sapiens) (UniProt P07333); conditions: Compound concentration 1000.0 nM
[8] = target: Tyrosine-protein kinase CSK (Homo sapiens) (UniProt P41240); conditions: Compound concentration 1000.0 nM
[9] = target: Casein kinase I isoform alpha-like (Homo sapiens) (UniProt Q8N752); conditions: Compound concentration 1000.0 nM
Sequence of Casein kinase I isoform alpha-like (Homo sapiens) (Q8N752 whole entry, canonical isoform): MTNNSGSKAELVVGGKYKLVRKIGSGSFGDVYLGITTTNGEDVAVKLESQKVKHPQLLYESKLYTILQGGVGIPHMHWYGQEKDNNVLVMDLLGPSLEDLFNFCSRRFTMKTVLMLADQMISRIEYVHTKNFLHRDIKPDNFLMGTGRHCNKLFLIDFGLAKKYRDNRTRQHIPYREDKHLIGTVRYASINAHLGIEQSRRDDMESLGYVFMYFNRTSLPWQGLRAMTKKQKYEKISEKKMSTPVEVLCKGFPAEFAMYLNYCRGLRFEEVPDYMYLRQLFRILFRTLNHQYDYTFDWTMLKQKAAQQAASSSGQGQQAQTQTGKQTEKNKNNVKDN

[10] = target: Casein kinase I isoform delta (Homo sapiens) (UniProt P48730); conditions: Compound concentration 1000.0 nM
Sequence of Casein kinase I isoform delta (Homo sapiens) (P48730 whole entry, looked up, canonical isoform): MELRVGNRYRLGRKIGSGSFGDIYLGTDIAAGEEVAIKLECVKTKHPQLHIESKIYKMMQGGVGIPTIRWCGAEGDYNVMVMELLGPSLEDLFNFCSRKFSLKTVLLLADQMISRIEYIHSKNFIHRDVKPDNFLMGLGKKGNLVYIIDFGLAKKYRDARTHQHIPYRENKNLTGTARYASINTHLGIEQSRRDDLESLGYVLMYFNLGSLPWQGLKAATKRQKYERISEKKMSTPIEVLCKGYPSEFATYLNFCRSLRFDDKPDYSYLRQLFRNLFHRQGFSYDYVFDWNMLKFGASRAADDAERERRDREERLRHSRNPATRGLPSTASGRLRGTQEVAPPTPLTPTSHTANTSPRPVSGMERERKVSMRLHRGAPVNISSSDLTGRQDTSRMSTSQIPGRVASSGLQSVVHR

[11] = target: Casein kinase I isoform epsilon (Homo sapiens) (UniProt P49674); conditions: Compound concentration 1000.0 nM
[12] = target: Death-associated protein kinase 1 (Homo sapiens) (UniProt P53355); conditions: Compound concentration 1000.0 nM
[13] = target: Dual specificity tyrosine-phosphorylation-regulated kinase 1A (Homo sapiens) (UniProt Q13627); conditions: Compound concentration 1000.0 nM
[14] = tested on: Epidermal growth factor receptor (Homo sapiens), P00533 [L858R]; conditions: Compound concentration 1000.0 nM
[15] = target: Ephrin type-A receptor 8 (Homo sapiens) (UniProt P29322); conditions: Compound concentration 1000.0 nM
[16] = target: Ephrin type-B receptor 1 (Homo sapiens) (UniProt P54762); conditions: Compound concentration 1000.0 nM
[17] = target: Receptor tyrosine-protein kinase erbB-3 (Homo sapiens) (UniProt P21860); conditions: Compound concentration 1000.0 nM
[18] = target: Mitogen-activated protein kinase 3 (Homo sapiens) (UniProt P27361); conditions: Compound concentration 1000.0 nM
[19] = target: Mitogen-activated protein kinase 1 (Homo sapiens) (UniProt P28482); conditions: Compound concentration 1000.0 nM
[20] = tested on: Receptor-type tyrosine-protein kinase FLT3 (Homo sapiens), P36888 [D835Y]; conditions: Compound concentration 1000.0 nM
[21] = tested on: Receptor-type tyrosine-protein kinase FLT3 (Homo sapiens), P36888 [R834Q]; conditions: Compound concentration 1000.0 nM
[22] = target: Tyrosine-protein kinase FRK (Homo sapiens) (UniProt P42685); conditions: Compound concentration 1000.0 nM
[23] = target: Insulin-like growth factor 1 receptor (Homo sapiens) (UniProt P08069); conditions: Compound concentration 1000.0 nM
[24] = target: Mitogen-activated protein kinase kinase kinase kinase 2 (Homo sapiens) (UniProt Q12851); conditions: Compound concentration 1000.0 nM
[25] = target: Dual specificity mitogen-activated protein kinase kinase 1 (Homo sapiens) (UniProt Q02750); conditions: Compound concentration 1000.0 nM
Sequence of Dual specificity mitogen-activated protein kinase kinase 1 (Homo sapiens) (Q02750 whole entry): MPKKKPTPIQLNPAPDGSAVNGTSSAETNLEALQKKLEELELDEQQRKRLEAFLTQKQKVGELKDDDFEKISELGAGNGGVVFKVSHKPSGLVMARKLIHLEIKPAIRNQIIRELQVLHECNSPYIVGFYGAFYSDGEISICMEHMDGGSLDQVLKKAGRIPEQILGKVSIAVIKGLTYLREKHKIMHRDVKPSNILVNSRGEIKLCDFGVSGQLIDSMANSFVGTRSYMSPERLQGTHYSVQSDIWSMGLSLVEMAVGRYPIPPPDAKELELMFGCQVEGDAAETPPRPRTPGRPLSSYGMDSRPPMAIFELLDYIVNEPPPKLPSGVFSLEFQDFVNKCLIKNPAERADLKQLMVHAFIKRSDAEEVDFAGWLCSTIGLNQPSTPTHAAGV

[26] = target: Hepatocyte growth factor receptor (Homo sapiens) (UniProt P08581); conditions: Compound concentration 1000.0 nM
[27] = target: Serine/threonine-protein kinase 38 (Homo sapiens) (UniProt Q15208); conditions: Compound concentration 1000.0 nM
[28] = target: Mitogen-activated protein kinase 13 (Homo sapiens) (UniProt O15264); conditions: Compound concentration 1000.0 nM
Sequence of Mitogen-activated protein kinase 13 (Homo sapiens) (O15264 whole entry): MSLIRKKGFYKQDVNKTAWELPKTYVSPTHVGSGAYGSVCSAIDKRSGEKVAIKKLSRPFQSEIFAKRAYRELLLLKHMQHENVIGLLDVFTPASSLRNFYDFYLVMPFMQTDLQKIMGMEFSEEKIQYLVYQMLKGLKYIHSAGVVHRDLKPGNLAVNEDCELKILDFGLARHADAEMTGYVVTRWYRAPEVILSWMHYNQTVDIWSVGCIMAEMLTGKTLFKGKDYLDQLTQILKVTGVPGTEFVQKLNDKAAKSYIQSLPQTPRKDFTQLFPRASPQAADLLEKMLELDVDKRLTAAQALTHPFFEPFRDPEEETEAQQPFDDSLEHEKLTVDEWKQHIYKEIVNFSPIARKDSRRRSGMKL

[29] = target: 3-phosphoinositide-dependent protein kinase 1 (Homo sapiens) (UniProt O15530); conditions: Compound concentration 1000.0 nM
Sequence of 3-phosphoinositide-dependent protein kinase 1 (Homo sapiens) (O15530 whole entry, the tested form may be a part): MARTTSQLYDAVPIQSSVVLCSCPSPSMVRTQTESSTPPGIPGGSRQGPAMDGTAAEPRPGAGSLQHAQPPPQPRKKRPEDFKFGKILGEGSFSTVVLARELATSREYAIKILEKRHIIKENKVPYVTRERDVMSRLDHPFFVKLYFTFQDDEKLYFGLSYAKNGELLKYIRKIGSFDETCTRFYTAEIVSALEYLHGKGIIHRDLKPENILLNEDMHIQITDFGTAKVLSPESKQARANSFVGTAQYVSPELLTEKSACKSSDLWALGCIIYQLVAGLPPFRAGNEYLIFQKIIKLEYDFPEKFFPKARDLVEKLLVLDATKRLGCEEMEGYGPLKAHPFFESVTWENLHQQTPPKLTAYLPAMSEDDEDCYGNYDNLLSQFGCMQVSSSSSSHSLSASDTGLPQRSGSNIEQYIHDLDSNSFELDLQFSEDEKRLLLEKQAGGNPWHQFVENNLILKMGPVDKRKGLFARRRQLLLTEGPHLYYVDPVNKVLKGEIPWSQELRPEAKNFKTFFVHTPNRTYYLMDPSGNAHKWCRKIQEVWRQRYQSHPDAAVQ

[30] = target: Phosphatidylinositol 3-kinase C2 domain-containing subunit gamma (Homo sapiens) (UniProt O75747); conditions: Compound concentration 1000.0 nM
[31] = target: cAMP-dependent protein kinase catalytic subunit alpha (Homo sapiens) (UniProt P17612); conditions: Compound concentration 1000.0 nM
[32] = target: Serine/threonine-protein kinase PLK3 (Homo sapiens) (UniProt Q9H4B4); conditions: Compound concentration 1000.0 nM
[33] = target: Protein kinase C delta type (Homo sapiens) (UniProt Q05655); conditions: Compound concentration 1000.0 nM
[34] = target: Dual serine/threonine and tyrosine protein kinase (Homo sapiens) (UniProt Q6XUX3); conditions: Compound concentration 1000.0 nM
[35] = target: Rho-associated protein kinase 2 (Homo sapiens) (UniProt O75116); conditions: Compound concentration 1000.0 nM
[36] = target: Uncharacterized serine/threonine-protein kinase SBK3 (Homo sapiens) (UniProt P0C264); conditions: Compound concentration 1000.0 nM
Sequence of Uncharacterized serine/threonine-protein kinase SBK3 (Homo sapiens) (P0C264 whole entry): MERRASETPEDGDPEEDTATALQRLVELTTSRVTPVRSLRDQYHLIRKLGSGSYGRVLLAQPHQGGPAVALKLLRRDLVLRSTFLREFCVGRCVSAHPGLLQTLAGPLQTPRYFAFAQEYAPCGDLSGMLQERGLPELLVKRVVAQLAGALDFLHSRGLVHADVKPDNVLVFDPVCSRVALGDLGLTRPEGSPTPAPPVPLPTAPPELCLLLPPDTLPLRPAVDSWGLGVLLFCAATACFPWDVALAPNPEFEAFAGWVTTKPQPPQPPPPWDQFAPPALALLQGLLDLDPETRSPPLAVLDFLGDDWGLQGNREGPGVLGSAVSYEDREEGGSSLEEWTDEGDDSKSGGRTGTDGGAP

[37] = target: Serine/threonine-protein kinase Sgk2 (Homo sapiens) (UniProt Q9HBY8); conditions: Compound concentration 1000.0 nM
[38] = target: Serine/threonine-protein kinase 36 (Homo sapiens) (UniProt Q9NRP7); conditions: Compound concentration 1000.0 nM
[39] = target: Non-receptor tyrosine-protein kinase TYK2 (Homo sapiens) (UniProt P29597); conditions: Compound concentration 1000.0 nM
[40] = target: Serine/threonine-protein kinase ULK3 (Homo sapiens) (UniProt Q6PHR2); conditions: Compound concentration 1000.0 nM
Sequence of Serine/threonine-protein kinase ULK3 (Homo sapiens) (Q6PHR2 whole entry): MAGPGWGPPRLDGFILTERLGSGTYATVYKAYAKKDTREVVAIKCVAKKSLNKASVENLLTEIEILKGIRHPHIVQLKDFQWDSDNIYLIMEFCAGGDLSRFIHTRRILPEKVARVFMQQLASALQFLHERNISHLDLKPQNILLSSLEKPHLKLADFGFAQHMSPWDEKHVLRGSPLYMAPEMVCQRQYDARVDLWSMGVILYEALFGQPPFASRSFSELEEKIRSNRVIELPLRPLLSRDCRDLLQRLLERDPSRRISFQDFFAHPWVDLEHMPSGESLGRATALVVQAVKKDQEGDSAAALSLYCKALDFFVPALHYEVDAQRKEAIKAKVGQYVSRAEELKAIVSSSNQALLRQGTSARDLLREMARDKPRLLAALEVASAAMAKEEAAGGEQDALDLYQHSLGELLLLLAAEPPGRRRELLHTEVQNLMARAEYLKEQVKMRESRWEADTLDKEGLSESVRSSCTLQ

[41] = target: Mitogen-activated protein kinase kinase kinase 19 (Homo sapiens) (UniProt Q56UN5); conditions: Compound concentration 1000.0 nM
[42] = target: Mitogen-activated protein kinase kinase kinase 20 (Homo sapiens) (UniProt Q9NYL2); conditions: Compound concentration 1000.0 nM
Sequence of Mitogen-activated protein kinase kinase kinase 20 (Homo sapiens) (Q9NYL2 2-800 limits assumed): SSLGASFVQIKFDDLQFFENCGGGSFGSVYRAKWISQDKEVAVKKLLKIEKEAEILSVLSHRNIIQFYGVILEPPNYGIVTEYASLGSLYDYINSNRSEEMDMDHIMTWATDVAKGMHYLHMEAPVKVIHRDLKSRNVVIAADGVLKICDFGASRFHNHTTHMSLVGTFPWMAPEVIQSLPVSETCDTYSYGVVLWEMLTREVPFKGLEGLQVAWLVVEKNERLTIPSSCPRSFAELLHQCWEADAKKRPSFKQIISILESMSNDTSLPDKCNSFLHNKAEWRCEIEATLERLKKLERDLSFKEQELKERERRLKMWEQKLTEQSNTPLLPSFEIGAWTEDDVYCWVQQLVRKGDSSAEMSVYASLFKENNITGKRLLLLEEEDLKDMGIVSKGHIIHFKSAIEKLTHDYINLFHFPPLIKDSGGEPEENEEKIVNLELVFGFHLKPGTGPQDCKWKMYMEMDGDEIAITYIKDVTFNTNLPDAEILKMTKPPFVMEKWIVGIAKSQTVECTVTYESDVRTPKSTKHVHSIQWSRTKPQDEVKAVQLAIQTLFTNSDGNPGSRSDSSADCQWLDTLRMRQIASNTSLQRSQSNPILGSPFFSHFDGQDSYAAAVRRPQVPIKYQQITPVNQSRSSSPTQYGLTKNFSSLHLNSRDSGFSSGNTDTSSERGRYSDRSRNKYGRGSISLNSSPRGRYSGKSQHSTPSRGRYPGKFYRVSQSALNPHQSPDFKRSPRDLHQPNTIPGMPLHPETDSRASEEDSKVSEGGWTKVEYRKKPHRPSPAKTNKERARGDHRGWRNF

[43] = target: 5-hydroxytryptamine receptor 2A (Homo sapiens) (UniProt P28223); conditions: Compound concentration 10.0 uM
[44] = target: GABA-A receptor; anion channel (Rattus norvegicus) (UniProt O09028+P15431+P18506+P18508+P19969+P20236+P23574+P23576+P28471+P28473+P30191+P62813+P63079+P63138+Q91ZM7+Q9ES14); conditions: Compound concentration 10.0 uM

Sequence of Ankyrin repeat and protein kinase domain-containing protein 1 (Homo sapiens) (Q8NFD2 whole entry, the tested form may be a part): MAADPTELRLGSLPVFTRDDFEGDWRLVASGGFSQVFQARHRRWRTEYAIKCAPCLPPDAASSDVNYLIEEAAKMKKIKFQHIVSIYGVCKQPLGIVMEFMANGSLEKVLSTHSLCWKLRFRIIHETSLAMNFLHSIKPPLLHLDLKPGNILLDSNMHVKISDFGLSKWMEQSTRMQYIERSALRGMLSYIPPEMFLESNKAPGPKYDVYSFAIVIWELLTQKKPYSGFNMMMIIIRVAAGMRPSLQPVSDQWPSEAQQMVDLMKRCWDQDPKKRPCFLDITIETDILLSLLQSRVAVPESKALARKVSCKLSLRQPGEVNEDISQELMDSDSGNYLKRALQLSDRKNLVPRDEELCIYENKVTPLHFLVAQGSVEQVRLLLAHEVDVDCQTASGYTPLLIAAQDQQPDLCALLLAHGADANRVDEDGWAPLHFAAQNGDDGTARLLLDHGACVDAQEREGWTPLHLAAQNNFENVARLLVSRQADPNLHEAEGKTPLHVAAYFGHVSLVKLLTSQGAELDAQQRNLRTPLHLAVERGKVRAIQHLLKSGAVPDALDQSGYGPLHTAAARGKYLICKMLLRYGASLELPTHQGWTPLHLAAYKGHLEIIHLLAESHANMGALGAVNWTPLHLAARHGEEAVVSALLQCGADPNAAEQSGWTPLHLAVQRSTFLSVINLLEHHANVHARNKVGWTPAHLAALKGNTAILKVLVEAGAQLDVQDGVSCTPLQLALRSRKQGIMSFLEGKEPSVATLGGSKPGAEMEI

NS(=O)(=O)c1cc(NC(=O)Cc2ccccc2)ccc1Oc1cccc(Cl)c1 [BAY-1797]
inactive: residual activity [1] 78% | residual activity [2] 96% | residual activity [3] 96% | residual activity [4] 91% | residual activity [5] 100% | residual activity [6] 91% | residual activity [7] 87% | residual activity [8] 100% | residual activity [9] 74% | residual activity [10] 93% | residual activity [11] 100% | residual activity [12] 90% | residual activity [13] 95% | residual activity [14] 85% | residual activity [15] 100% | residual activity [16] 93% | residual activity [17] 100% | residual activity [18] 94% | residual activity [19] 71% | residual activity [20] 95% | residual activity [21] 91% | residual activity [22] 98% | residual activity [23] 100% | residual activity [24] 84% | residual activity [25] 97% | residual activity [26] 91% | residual activity [27] 90% | residual activity [28] 100% | residual activity [29] 95% | residual activity [30] 72% | residual activity [31] 94% | residual activity [32] 87% | residual activity [33] 100% | residual activity [34] 83% | residual activity [35] 98% | residual activity [36] 100% | residual activity [37] 85% | residual activity [38] 100% | residual activity [39] 67% | residual activity [40] 74% | residual activity [41] 78% | residual activity [42] 100% | inhibition [43] -2.5% | inhibition [44] 0.73%

NS(=O)(=O)c1cc(NC(=O)C2(c3ccccc3Cl)CC2)ccc1Oc1cccc(Cl)c1 [BAY-207]
inactive: residual activity [1] 97% | residual activity [2] 99% | residual activity [3] 97% | residual activity [4] 85% | residual activity [5] 82% | residual activity [6] 97% | residual activity [7] 85% | residual activity [8] 100% | residual activity [9] 84% | residual activity [10] 83% | residual activity [11] 64% | residual activity [12] 98% | residual activity [13] 90% | residual activity [14] 79% | residual activity [15] 80% | residual activity [16] 78% | residual activity [17] 84% | residual activity [18] 76% | residual activity [19] 75% | residual activity [20] 100% | residual activity [21] 100% | residual activity [22] 99% | residual activity [23] 80% | residual activity [24] 100% | residual activity [25] 88% | residual activity [26] 81% | residual activity [27] 81% | residual activity [28] 88% | residual activity [29] 85% | residual activity [30] 100% | residual activity [31] 94% | residual activity [32] 86% | residual activity [33] 89% | residual activity [34] 93% | residual activity [35] 100% | residual activity [36] 74% | residual activity [37] 100% | residual activity [38] 99% | residual activity [39] 80% | residual activity [40] 83% | residual activity [41] 70% | residual activity [42] 99% | inhibition [43] 11.3% | inhibition [44] 3.19%
